Experimental findings from PubChem BioAssay (NCI) are described below.

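All cell lines were grown in 96-well plates and treated with compound for 48 hours. TGI: total growth inhibition.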

Some test systems named below: HOP-92 NSCLC; SR leukemia; CCRF-CEM leukemia; M14 melanoma; U251 CNS; NCI-H23 lung; SF-539 CNS; NCI-H460 lung; OVCAR-4 ovarian; IGROV1 ovarian; HCT-15 colon; HOP-62 NSCLC; UACC-257 melanoma; LOX IMVI melanoma; SF-295 CNS; EKVX NSCLC; HCC-2998 colon; HCT-116 colon; NCI-H522 lung.
Test in all cases: NCI tumour cell line growth inhibition, 48 h

`CCOC(=O)c1cc(C2CCN(Cc3ccccc3)C2=O)c(C(=O)C(=[N+]=[N-])C(C)=O)[nH]1` (configuration not stated): the TGI in the test on HOP-92 NSCLC, in the test with SR leukemia, in the test with CCRF-CEM leukemia, with M14 melanoma, in the test on U251 CNS and in the test on NCI-H23 lung was greater than 100 µM in each case. The TGI in the test with SF-539 CNS, in the test on NCI-H460 lung, in the test with OVCAR-4 ovarian, in the test with IGROV1 ovarian, in the test on HCT-15 colon and in the test on HOP-62 NSCLC was greater than 100 µM each time. The TGI in the test on UACC-257 melanoma, in the test on LOX IMVI melanoma, in the test on SF-295 CNS, with EKVX NSCLC, with HCC-2998 colon and in the test on HCT-116 colon was greater than 100 µM throughout.
With `CC(C)OP(=O)(OC(C)C)/C(=N/N)NNc1ccc([N+](=O)[O-])cc1`, the TGI in the test with HOP-92 NSCLC, in the test with SR leukemia, in the test with CCRF-CEM leukemia, in the test on M14 melanoma, in the test on U251 CNS and in the test on NCI-H23 lung was greater than 100 µM throughout. In addition, the TGI in the test on SF-539 CNS, with NCI-H460 lung, in the test on OVCAR-4 ovarian, in the test on HCT-15 colon, with HOP-62 NSCLC and in the test with NCI-H522 lung was greater than 100 µM each time. The TGI in the test with UACC-257 melanoma, with LOX IMVI melanoma, in the test with EKVX NSCLC, in the test with HCC-2998 colon and in the test with HCT-116 colon was greater than 100 µM each time.
As to `COP1(=O)NCc2ncccc2O1` (configuration not stated), the TGI in the test on HOP-92 NSCLC, with SR leukemia, with CCRF-CEM leukemia, with M14 melanoma, in the test on U251 CNS and in the test with NCI-H23 lung was greater than 100 µM each time. Besides, the TGI with SF-539 CNS, with NCI-H460 lung, with OVCAR-4 ovarian, in the test with IGROV1 ovarian, in the test with HCT-15 colon and in the test on HOP-62 NSCLC was greater than 100 µM throughout. Besides, the TGI in the test with UACC-257 melanoma, in the test with LOX IMVI melanoma, in the test on SF-295 CNS, with EKVX NSCLC, in the test with HCC-2998 colon and in the test with HCT-116 colon was greater than 100 µM in each case.
Take `COc1ccc2c(c1)nc1n2C(c2c(F)cccc2Cl)SC1` (configuration not stated): the TGI in the test with HOP-92 NSCLC is greater than 100 µM; in the test on SR leukemia, greater than 36.4 µM; in the test on CCRF-CEM leukemia, greater than 100 µM; with M14 melanoma it was greater than 24.7 µM; in the test with U251 CNS, greater than 35.4 µM; in the test with NCI-H23 lung it was greater than 35 µM. Besides, the TGI was 16.1 µM with SF-539 CNS; greater than 35.1 µM in the test with NCI-H460 lung; greater than 100 µM with OVCAR-4 ovarian; greater than 100 µM with IGROV1 ovarian; greater than 37.2 µM in the test with HCT-15 colon; greater than 44.6 µM in the test on HOP-62 NSCLC. Further, the TGI in the test with UACC-257 melanoma was greater than 43.2 µM; with LOX IMVI melanoma, greater than 61.6 µM; in the test on SF-295 CNS, greater than 24.8 µM; in the test with EKVX NSCLC, greater than 100 µM; in the test on HCC-2998 colon it was greater than 39.8 µM; with HCT-116 colon, greater than 37 µM.
On to `c1ccc2c3c([nH]c2c1)C1c2[nH]c4ccccc4c2CCN1CC3`, for which the TGI with HOP-92 NSCLC was 15.4 µM; with SR leukemia, greater than 100 µM; in the test on CCRF-CEM leukemia, greater than 100 µM; with NCI-H23 lung, 28.2 µM; with SF-539 CNS, 31.3 µM; with NCI-H460 lung, 24.3 µM. For the same molecule, the TGI with OVCAR-4 ovarian is 18.7 µM; in the test on IGROV1 ovarian it was 31.1 µM; in the test on HCT-15 colon, 26.9 µM; in the test with HOP-62 NSCLC it was 27.8 µM; in the test with NCI-H522 lung it was 28.6 µM; in the test on UACC-257 melanoma, 28.6 µM. Further, the TGI is 34.8 µM with LOX IMVI melanoma; 34.3 µM with SF-295 CNS; 20.2 µM in the test on EKVX NSCLC; 25.9 µM in the test with HCC-2998 colon; 23.3 µM with HCT-116 colon.
For the molecule `CCCCNC(=O)Nc1c(C(N)=O)c2n(c1C(=O)OCC)CCCCC2`, the TGI in the test with HOP-92 NSCLC, with SR leukemia, in the test with CCRF-CEM leukemia, in the test with M14 melanoma, in the test on U251 CNS and in the test on NCI-H23 lung was greater than 100 µM in each case. For the same molecule, the TGI in the test on SF-539 CNS, in the test with NCI-H460 lung, with OVCAR-4 ovarian, in the test with IGROV1 ovarian, with HCT-15 colon and with HOP-62 NSCLC was greater than 100 µM in each case. The TGI with UACC-257 melanoma, with LOX IMVI melanoma, in the test with SF-295 CNS, in the test with EKVX NSCLC, in the test with HCC-2998 colon and in the test on HCT-116 colon was greater than 100 µM each time.
On to `CN(C)c1ccc(/C=C(\NC(=O)c2ccccc2)C(=O)Nc2ccccc2C(=O)O)cc1`, for which the TGI with HOP-92 NSCLC, with SR leukemia, in the test with CCRF-CEM leukemia, in the test on M14 melanoma, in the test with U251 CNS and in the test with NCI-H23 lung was greater than 100 µM throughout. Besides, the TGI in the test with SF-539 CNS, with NCI-H460 lung, in the test with IGROV1 ovarian, in the test with HCT-15 colon, with HOP-62 NSCLC and in the test on NCI-H522 lung was greater than 100 µM throughout. Further, the TGI in the test with UACC-257 melanoma, in the test on LOX IMVI melanoma, in the test on SF-295 CNS, in the test with EKVX NSCLC, in the test on HCC-2998 colon and in the test with HCT-116 colon was greater than 100 µM in each case.
Take `O=P1(Oc2ccc(Cl)cc2)OCCS1` (configuration not stated): the TGI in the test on HOP-92 NSCLC, in the test on SR leukemia, in the test on CCRF-CEM leukemia, with M14 melanoma, in the test on U251 CNS and in the test with NCI-H23 lung was greater than 100 µM each time. For the same molecule, the TGI with SF-539 CNS, in the test on NCI-H460 lung, with IGROV1 ovarian, in the test on HCT-15 colon, in the test with HOP-62 NSCLC and in the test on NCI-H522 lung was greater than 100 µM in each case. Further, the TGI in the test on UACC-257 melanoma, in the test with LOX IMVI melanoma, in the test with SF-295 CNS, in the test with EKVX NSCLC, with HCC-2998 colon and in the test with HCT-116 colon was greater than 100 µM each time.
